Structures can show the parent of a compound that is named as a salt. Where two headings read alike, the source gives them in different places.
Key:
Assay type in all cases: biochemical
[1] = target: T1, human JAK3 (a.a. 781-1124) (Homo sapiens, UniProt P52333); test: In vitro JAK kinase assay (HTRF, phosphorylation of a biotinylated peptide), JAK3
T1 construct: JAK3 (a.a. 781-1124); His tag (N); made in house; host or cells: insect cells (baculovirus)
Summary of the method: (§1)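 Phosphorylation of a biotinylated peptide by the JAK kinase domain, detected by HTRF with Eu-Py20 and SA-APC. ATP was 90 μM for JAK1, 30 μM for JAK2 and 3 μM for JAK3. Reactions ran 1 h at room temperature and were stopped with EDTA, followed by 40 min antibody binding.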

[2] = target: TYK2 (Homo sapiens, UniProt P29597); test: TYK2 kinase inhibition (Table A1)
TYK2, sequence (P29597 whole entry): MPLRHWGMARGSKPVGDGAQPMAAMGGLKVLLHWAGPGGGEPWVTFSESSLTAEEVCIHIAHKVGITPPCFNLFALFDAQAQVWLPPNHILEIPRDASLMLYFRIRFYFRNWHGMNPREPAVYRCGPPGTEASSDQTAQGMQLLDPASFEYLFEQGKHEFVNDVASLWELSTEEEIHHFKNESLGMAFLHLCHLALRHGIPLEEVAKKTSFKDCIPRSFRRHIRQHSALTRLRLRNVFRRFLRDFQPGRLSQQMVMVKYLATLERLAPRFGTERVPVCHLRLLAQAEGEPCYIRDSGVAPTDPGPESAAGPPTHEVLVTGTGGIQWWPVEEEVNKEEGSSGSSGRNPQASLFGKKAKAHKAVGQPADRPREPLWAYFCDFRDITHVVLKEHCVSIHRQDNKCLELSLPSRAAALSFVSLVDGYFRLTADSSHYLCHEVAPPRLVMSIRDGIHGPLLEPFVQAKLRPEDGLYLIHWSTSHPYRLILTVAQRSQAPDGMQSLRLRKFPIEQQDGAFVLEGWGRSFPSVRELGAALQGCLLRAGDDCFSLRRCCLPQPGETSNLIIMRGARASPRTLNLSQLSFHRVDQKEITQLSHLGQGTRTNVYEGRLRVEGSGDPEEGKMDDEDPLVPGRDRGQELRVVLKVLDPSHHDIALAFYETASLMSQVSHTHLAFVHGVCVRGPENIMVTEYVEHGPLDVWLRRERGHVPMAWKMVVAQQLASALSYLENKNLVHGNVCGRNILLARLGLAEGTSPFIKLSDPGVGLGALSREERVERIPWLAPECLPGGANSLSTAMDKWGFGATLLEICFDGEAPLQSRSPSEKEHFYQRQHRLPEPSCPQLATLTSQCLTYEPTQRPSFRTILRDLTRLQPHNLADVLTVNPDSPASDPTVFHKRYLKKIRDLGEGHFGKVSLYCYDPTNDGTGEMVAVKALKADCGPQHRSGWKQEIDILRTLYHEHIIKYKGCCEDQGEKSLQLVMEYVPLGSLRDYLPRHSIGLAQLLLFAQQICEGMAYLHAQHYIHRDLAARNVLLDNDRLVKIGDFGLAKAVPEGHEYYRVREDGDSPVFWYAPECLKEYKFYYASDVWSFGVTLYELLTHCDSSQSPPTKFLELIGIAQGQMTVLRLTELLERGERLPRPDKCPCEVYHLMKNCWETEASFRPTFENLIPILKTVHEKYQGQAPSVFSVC

[3] = target: T2, human JAK1 (a.a. 837-1142) (Homo sapiens, UniProt P23458); test: In vitro JAK kinase assay (HTRF, phosphorylation of a biotinylated peptide), JAK1; details: read-out: JAK1 IC50
T2 construct: human JAK1 (a.a. 837-1142); His tag (N); made in house; host or cells: insect cells (baculovirus)
T2 sequence (P23458 849-1154): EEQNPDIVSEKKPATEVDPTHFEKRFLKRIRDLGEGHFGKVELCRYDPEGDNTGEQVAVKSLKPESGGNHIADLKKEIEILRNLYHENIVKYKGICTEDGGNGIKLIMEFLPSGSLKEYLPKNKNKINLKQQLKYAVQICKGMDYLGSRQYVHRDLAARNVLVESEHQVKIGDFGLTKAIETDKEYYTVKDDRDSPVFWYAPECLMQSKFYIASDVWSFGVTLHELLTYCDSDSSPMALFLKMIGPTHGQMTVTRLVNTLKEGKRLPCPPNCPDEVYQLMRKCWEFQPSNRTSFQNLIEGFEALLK
Summary of the method: as §1

[4] = target: T3, human JAK2 (a.a. 828-1132) (Homo sapiens, UniProt O60674); test: In vitro JAK kinase assay (HTRF, phosphorylation of a biotinylated peptide), JAK2
T3 construct: JAK2 (a.a. 828-1132); His tag (N); made in house; host or cells: insect cells (baculovirus)
T3 sequence (O60674 828-1132): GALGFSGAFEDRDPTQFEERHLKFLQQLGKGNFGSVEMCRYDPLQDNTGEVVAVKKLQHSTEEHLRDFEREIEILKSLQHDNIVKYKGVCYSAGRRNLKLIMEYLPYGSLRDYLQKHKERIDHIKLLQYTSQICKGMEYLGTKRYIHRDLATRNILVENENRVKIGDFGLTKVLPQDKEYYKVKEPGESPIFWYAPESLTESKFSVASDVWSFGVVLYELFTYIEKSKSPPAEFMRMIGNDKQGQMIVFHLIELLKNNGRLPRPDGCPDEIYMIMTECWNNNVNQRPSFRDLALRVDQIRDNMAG
Summary of the method: as §1

[5] = target: T4, Recombinant Human Anaplastic Lymphoma Kinase (Homo sapiens, UniProt Q9UM73); test: ALK HTRF kinase assay
T4 construct: purchased Invitrogen, Carlsbad, Calif
T4 sequence (Q9UM73 19-1620): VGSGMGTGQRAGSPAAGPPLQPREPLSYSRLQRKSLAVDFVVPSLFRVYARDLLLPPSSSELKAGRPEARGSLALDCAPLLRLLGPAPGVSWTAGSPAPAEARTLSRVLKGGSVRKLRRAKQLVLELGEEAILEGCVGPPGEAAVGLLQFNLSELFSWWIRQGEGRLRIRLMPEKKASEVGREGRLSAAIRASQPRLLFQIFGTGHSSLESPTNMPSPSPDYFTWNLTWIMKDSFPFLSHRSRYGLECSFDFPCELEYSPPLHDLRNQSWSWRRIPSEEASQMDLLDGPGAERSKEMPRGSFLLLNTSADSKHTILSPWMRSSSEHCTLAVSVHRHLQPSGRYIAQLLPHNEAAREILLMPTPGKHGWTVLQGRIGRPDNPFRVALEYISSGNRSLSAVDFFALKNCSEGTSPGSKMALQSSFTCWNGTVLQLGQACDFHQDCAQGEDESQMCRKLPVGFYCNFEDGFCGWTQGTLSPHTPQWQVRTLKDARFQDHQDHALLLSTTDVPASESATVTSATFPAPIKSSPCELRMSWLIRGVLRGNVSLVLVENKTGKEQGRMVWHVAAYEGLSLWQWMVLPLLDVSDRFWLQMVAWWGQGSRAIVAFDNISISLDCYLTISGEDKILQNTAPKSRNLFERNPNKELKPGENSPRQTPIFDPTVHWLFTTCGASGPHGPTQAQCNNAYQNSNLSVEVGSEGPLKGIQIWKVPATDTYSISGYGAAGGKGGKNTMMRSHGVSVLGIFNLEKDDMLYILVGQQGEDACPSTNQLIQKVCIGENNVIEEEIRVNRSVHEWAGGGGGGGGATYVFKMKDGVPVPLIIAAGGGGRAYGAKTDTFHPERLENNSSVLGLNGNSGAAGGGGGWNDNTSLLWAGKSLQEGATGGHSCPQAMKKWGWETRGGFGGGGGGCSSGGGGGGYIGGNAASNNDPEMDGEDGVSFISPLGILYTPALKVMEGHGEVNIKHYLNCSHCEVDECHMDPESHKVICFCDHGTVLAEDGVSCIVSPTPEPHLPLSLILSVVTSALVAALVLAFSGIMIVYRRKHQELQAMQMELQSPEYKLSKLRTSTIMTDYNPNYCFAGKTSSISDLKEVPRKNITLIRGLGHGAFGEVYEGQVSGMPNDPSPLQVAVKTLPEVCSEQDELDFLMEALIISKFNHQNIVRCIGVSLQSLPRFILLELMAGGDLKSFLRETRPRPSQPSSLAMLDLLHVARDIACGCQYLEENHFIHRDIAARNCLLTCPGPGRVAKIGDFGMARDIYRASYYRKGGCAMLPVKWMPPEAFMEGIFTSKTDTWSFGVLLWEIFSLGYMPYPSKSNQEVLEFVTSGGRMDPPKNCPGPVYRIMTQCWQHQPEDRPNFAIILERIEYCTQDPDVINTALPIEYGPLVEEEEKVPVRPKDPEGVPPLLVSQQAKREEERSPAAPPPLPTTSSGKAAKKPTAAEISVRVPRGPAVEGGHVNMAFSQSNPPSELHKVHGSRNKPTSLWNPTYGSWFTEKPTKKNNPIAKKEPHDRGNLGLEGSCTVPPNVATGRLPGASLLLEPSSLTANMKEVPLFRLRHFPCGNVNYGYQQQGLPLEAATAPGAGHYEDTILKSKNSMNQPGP
Summary of the method: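 Readout was HTRF between a Eu-W1024 anti-phosphotyrosine antibody and streptavidin-APC bound to biotinylated peptide phosphorylated by recombinant human ALK. IC50 values came from a four-parameter logistic fit.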

[6] = method AA1 (3 μM ATP) or AA2 (1000 μM ATP), not stated per value
[7] = method AA1 (90 μM ATP) or AA2 (1000 μM ATP), not stated per value
[8] = method AA1 (30 μM ATP) or AA2 (1000 μM ATP), not stated per value
[9] = compound at 500 nM or 1 mM, 90 μM ATP

T1 sequence (P52333 781-1124): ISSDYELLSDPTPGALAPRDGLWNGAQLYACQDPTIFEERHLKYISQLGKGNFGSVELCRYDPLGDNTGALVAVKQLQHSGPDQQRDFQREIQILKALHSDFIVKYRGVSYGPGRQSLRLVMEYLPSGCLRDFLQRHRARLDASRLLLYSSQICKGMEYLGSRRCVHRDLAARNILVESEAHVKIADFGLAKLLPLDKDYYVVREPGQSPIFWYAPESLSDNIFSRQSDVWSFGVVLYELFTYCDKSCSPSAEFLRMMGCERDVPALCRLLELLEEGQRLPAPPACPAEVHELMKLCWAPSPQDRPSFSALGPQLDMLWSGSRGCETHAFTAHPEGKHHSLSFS

## C[N+]1(C)CCC(CC(=O)Nc2ccc3cc2CCc2cccc(c2)Nc2ncc(Cl)c(n2)N3)CC1 [Example A111, 4-(2-{[6-Chloro-2,4,8,22-tetraazatetracyclo[14.3.1.1(3,7).1(9,13)]docosa-1(20),3(22),4,6,9(21),10,12,16,18-nonaen-12-yl]amino}-2-oxoethyl)-1,1-dimethylpiperidinium bis(trifluoroacetate)]
[1]; [6]
  IC50: 0.298 µM
[2]
  IC50: 0.148 µM
[3]; [7]
  IC50: 0.045 µM
[4]; [8]
  IC50: 0.103 µM
[5]; [9]
  ALK % of inhibition at a concentration of 500 nM or 1 mM: 23%

## NS(=O)(=O)c1cc2cc(c1)Nc1nc(ncc1Br)Nc1cccc(c1)CC2 [Example B18, 6-Bromo-2,4,8,22-tetraazatetracyclo[14.3.1.1(3,7).1(9,13)]docosa-1(20),3(22),4,6,9(21),10,12,16,18-nonaene-11-sulfonamide trifluoroacetate]
[1]; Table B1
  IC50: 0.064 µM
[2]; Table B1
  IC50: 0.178 µM
[3]; Table B1
  IC50: 0.107 µM
[4]; Table B1
  IC50: 0.023 µM
[5]; Table B1, cells without percent sign
  IC50: > 1 µM

## O=S1(=O)CCc2cccc(c2)Nc2ncc(Cl)c(n2)Nc2cccc1c2 [Example D24, 6-chloro-14-thia-2,4,8,23-tetraazatetracyclo[15.3.1.1(3,7).1(9,13)]tricosa-1(21),3(23),4,6,9(22),10,12,17,19-nonaene 14,14-dioxide trifluoroacetate]
[1]; Table D1
  IC50: 0.02 µM
[2]; Table D1
  IC50: 0.016 µM
[3]; Table D1
  IC50: 0.005 µM
[4]; Table D1
  IC50: 0.006 µM
[5]; Table D1, 90 μM ATP
  IC50: 1.37 µM

## O=C(NCCNC(=O)c1ccccc1)Nc1ccc2cc1CCc1cccc(c1)Nc1ncc(Cl)c(n1)N2 [Example B189, N-{2-[({[6-Chloro-2,4,8,22-tetraazatetracyclo[14.3.1.1(3,7).1(9,13)]docosa-1(20),3(22),4,6,9(21),10,12,16,18-nonaen-12-yl]amino}carbonyl)amino]ethyl}benzamide trifluoroacetate]
[1]; Table B1
  IC50: 0.035 µM
[2]; Table B1
  IC50: 0.022 µM
[3]; Table B1
  IC50: 0.005 µM
[4]; Table B1
  IC50: 0.0067 µM
[5]; compound at a concentration of 500 nM or 1 mM (not specified), cells shown as percentage
  ALK % of inhibition at a concentration of 500 nM or 1 mM: 15%

## O=C(Nc1ccccc1)N[C@@H](CO)C(=O)Nc1ccc2cc1CCc1cccc(c1)Nc1ncc(Cl)c(n1)N2 [Example A68, (2S)-2-[(Anilinocarbonyl)amino]-N-[6-chloro-2,4,8,22-tetraazatetracyclo[14.3.1.1(3,7).1(9,13)]docosa-1(20),3(22),4,6,9(21),10,12,16,18-nonaen-12-yl]-3-hydroxypropanamide trifluoroacetate]
[1]; [6]
  IC50: 0.0041 µM
[2]
  IC50: 0.011 µM
[3]; [7]
  IC50: 0.002 µM
[4]; [8]
  IC50: 0.0028 µM
[5]; [9]
  ALK % of inhibition at a concentration of 500 nM or 1 mM: 46%

## O=C(NCc1ccccc1)N1CCN(c2cc(-c3cc4cc(c3)Nc3ncc(Cl)c(n3)Nc3cccc(c3)OCC4)ccn2)CC1 [Example D45, N-Benzyl-4-{4-[6-chloro-14-oxa-2,4,8,23-tetraazatetracyclo[15.3.1.1(3,7).1(9,13)]tricosa-1(21),3(23),4,6,9(22),10,12,17,19-nonaen-19-yl]pyridin-2-yl}piperazine-1-carboxamide bis(trifluoroacetate)]
[1]; Table D1
  IC50: 0.036 µM
[2]; Table D1
  IC50: 0.013 µM
[3]; Table D1
  IC50: 0.0081 µM
[4]; Table D1
  IC50: 0.003 µM
[5]; Table D1, 90 μM ATP
  IC50: 0.34 µM

## Cc1ncsc1C(=O)N1CCC(CC(=O)Nc2ccc3cc2CCc2cncc(c2)Nc2ncc(Cl)c(n2)N3)CC1 [Example A216, N-[6-Chloro-2,4,8,18,22-pentaazatetracyclo[14.3.1.1(3,7).1(9,13)]docosa-1(20),3(22),4,6,9(21),10,12,16,18-nonaen-12-yl]-2-{1-[(4-methyl-1,3-thiazol-5-yl)carbonyl]piperidin-4-yl}acetamide bis(trifluoroacetate)]
[1]; [6]
  IC50: > 0.2 µM
[2]
  IC50: > 0.2 µM
[3]; [7]
  IC50: 0.08 µM
[4]; [8]
  IC50: > 0.2 µM
[5]; [9]
  ALK % of inhibition at a concentration of 500 nM or 1 mM: 29%

— patent publication US8871753B2, “Macrocyclic compounds and their use as kinase inhibitors” (Incyte Corporation, priority 2008, dated 2014)
